ChEMBL document CHEMBL6078724, “Discovery of the first examples of right open reading frame kinase 2 (RIOK2) molecular glue degraders” (Eur J Med Chem, 2025)
The source made the active and inactive calls. No cut-off for these calls is given here.

How the values were obtained:
[1] = biological target: T1, E3 ubiquitin-protein ligase RNF126/Serine/threonine-protein kinase RIO2 (Homo sapiens, UniProt Q9BVS4+Q9BV68); assay: Molecular glue degradation activity at RNF126/RIOK2 in human MOLT-4 cells assessed as induction protein degradation incubated for 12 hrs by immunoblot analysis; assay type: cell-based
[2] = biological target: T1, E3 ubiquitin-protein ligase RNF126/Serine/threonine-protein kinase RIO2; assay: Molecular glue degradation activity at RNF126/RIOK2 in human MOLT-4 cells assessed as induction protein degradation at 1 uM incubated for 24 hrs by immunoblot analysis relative to control; assay type: cell-based
Target sequence in this assay (Q9BV68 2-311 partner limits assumed): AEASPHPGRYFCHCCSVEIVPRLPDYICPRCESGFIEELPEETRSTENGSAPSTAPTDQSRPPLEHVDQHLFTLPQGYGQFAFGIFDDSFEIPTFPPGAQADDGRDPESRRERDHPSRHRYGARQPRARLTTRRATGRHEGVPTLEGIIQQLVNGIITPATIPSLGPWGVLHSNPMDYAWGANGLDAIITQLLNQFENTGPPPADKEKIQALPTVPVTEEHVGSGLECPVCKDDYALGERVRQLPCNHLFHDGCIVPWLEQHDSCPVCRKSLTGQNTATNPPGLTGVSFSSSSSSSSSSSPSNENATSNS
Target sequence in this assay (Q9BVS4 whole entry): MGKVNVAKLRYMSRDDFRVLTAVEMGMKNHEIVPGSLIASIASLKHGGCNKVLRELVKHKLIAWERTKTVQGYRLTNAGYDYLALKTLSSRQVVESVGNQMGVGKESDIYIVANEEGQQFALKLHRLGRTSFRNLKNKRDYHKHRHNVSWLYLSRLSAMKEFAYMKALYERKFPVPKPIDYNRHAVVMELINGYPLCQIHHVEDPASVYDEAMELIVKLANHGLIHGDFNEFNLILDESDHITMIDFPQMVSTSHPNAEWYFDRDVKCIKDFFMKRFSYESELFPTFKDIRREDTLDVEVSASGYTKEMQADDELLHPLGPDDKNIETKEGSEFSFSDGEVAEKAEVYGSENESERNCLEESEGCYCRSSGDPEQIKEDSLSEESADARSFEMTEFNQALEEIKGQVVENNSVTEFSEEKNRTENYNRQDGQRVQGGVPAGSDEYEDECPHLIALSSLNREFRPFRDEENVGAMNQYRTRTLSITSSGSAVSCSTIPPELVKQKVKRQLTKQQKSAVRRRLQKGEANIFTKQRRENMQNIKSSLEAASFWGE

[3] = biological target: T1, E3 ubiquitin-protein ligase RNF126/Serine/threonine-protein kinase RIO2; assay: Molecular glue degradation activity at RNF126/RIOK2 in CHX-treated human MOLT-4 cells assessed as half life of RIOK2 at 2 uM by immunoblot analysis (reference value: 12.5 hrs); assay type: cell-based
Target sequence in this assay (Q9BV68 2-311 partner limits assumed): as the sequence (Q9BV68 2-311 partner limits assumed) above
Target sequence in this assay (Q9BVS4 whole entry): as the sequence (Q9BVS4 whole entry) above

[4] = biological target: T1, E3 ubiquitin-protein ligase RNF126/Serine/threonine-protein kinase RIO2; assay: Molecular glue degradation activity at RNF126/RIOK2 in MLN4924-treated human MOLT-4 cells assessed as induction protein degradation at 1 uM incubated for 12 hrs by immunoblot analysis; assay type: cell-based
Target sequence in this assay (Q9BV68 2-311 partner limits assumed): as the sequence (Q9BV68 2-311 partner limits assumed) above
Target sequence in this assay (Q9BVS4 whole entry): as the sequence (Q9BVS4 whole entry) above

[5] = biological target: T1, E3 ubiquitin-protein ligase RNF126/Serine/threonine-protein kinase RIO2; assay: Molecular glue degradation activity at RNF126/RIOK2 in JP-2-196-treated human MOLT-4 cells assessed as induction protein degradation at 1 uM incubated for 12 hrs by immunoblot analysis; assay type: cell-based
Target sequence in this assay (Q9BV68 2-311 partner limits assumed): as the sequence (Q9BV68 2-311 partner limits assumed) above
Target sequence in this assay (Q9BVS4 whole entry): as the sequence (Q9BVS4 whole entry) above

[6] = biological target: T1, E3 ubiquitin-protein ligase RNF126/Serine/threonine-protein kinase RIO2; assay: Molecular glue degradation activity at RNF126/RIOK2 in human MOLT-4 cells assessed as increase in ubiquitination of RIOK2 at 1 uM incubated for 10 hrs by immunoblot analysis; assay type: cell-based
Target sequence in this assay (Q9BV68 2-311 partner limits assumed): as the sequence (Q9BV68 2-311 partner limits assumed) above
Target sequence in this assay (Q9BVS4 whole entry): as the sequence (Q9BVS4 whole entry) above

[7] = biological target: T1, E3 ubiquitin-protein ligase RNF126/Serine/threonine-protein kinase RIO2; assay: Molecular glue degradation activity at RNF126/RIOK2 in human U-937 cells assessed as induction protein degradation by immunoblot analysis; assay type: cell-based
Target sequence in this assay (Q9BVS4 whole entry): as above
Target sequence in this assay (Q9BV68 whole entry): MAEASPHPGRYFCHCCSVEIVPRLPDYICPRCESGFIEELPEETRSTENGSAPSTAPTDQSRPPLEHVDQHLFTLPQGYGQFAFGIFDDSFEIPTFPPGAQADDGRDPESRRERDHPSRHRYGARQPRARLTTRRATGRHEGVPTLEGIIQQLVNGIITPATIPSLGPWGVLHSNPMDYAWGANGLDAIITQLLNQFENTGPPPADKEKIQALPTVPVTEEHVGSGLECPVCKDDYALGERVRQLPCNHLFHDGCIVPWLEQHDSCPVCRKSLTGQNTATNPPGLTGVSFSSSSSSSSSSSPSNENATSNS

[8] = biological target: T1, E3 ubiquitin-protein ligase RNF126/Serine/threonine-protein kinase RIO2; assay: Molecular glue degradation activity at RNF126/RIOK2 in human OCILY3 cells assessed as induction protein degradation by immunoblot analysis; assay type: cell-based
Target sequence in this assay (Q9BVS4 whole entry): as the sequence (Q9BVS4 whole entry) above
Target sequence in this assay (Q9BV68 whole entry): as the sequence (Q9BV68 whole entry) above

[9] = biological target: T1, E3 ubiquitin-protein ligase RNF126/Serine/threonine-protein kinase RIO2; assay: Molecular glue degradation activity at RNF126/RIOK2 in human ASPC1 cells assessed as induction protein degradation by immunoblot analysis; assay type: cell-based
Target sequence in this assay (Q9BVS4 whole entry): as the sequence (Q9BVS4 whole entry) above
Target sequence in this assay (Q9BV68 whole entry): as the sequence (Q9BV68 whole entry) above

[10] = biological target: T1, E3 ubiquitin-protein ligase RNF126/Serine/threonine-protein kinase RIO2; assay: Molecular glue degradation activity at RNF126/RIOK2 in human A549 cells assessed as induction protein degradation by immunoblot analysis; assay type: cell-based
Target sequence in this assay (Q9BVS4 whole entry): as the sequence (Q9BVS4 whole entry) above
Target sequence in this assay (Q9BV68 whole entry): as the sequence (Q9BV68 whole entry) above

[11] = biological target: T1, E3 ubiquitin-protein ligase RNF126/Serine/threonine-protein kinase RIO2; assay: Molecular glue degradation activity at RNF126/RIOK2 in HEK293 cells assessed as induction protein degradation by immunoblot analysis; assay type: cell-based
Target sequence in this assay (Q9BVS4 whole entry): as the sequence (Q9BVS4 whole entry) above
Target sequence in this assay (Q9BV68 whole entry): as the sequence (Q9BV68 whole entry) above

[12] = biological target: T1, E3 ubiquitin-protein ligase RNF126/Serine/threonine-protein kinase RIO2; assay: Molecular glue degradation activity at RNF126/RIOK2 in human U-937 cells assessed as induction protein degradation by immunoblot analysis relative to control; assay type: cell-based
Target sequence in this assay (Q9BV68 2-311 partner limits assumed): as the sequence (Q9BV68 2-311 partner limits assumed) above
Target sequence in this assay (Q9BVS4 whole entry): as the sequence (Q9BVS4 whole entry) above

[13] = biological target: T1, E3 ubiquitin-protein ligase RNF126/Serine/threonine-protein kinase RIO2; assay: Molecular glue degradation activity at RNF126/RIOK2 in human HL-60 cells assessed as induction protein degradation by immunoblot analysis relative to control; assay type: cell-based
[14] = biological target: T1, E3 ubiquitin-protein ligase RNF126/Serine/threonine-protein kinase RIO2; assay: Molecular glue degradation activity at RNF126/RIOK2 in human OCILY3 cells assessed as induction protein degradation by immunoblot analysis relative to control; assay type: cell-based
[15] = biological target: T1, E3 ubiquitin-protein ligase RNF126/Serine/threonine-protein kinase RIO2; assay: Molecular glue degradation activity at RNF126/RIOK2 in human HeLa cells assessed as induction protein degradation by immunoblot analysis relative to control; assay type: cell-based
U-937 = assay: Antiproliferative activity against human U-937 cells incubated for 72 hrs by CCK8 assay; assay type: functional, cell-based; conditions: U-937, 72 h
MOLT-4 [16] = assay: Antiproliferative activity against human MOLT-4 cells incubated for 72 hrs by CCK8 assay; assay type: functional, cell-based; conditions: MOLT-4, 72 h
HL-60 = assay: Antiproliferative activity against human HL-60 cells incubated for 72 hrs by CCK8 assay; assay type: functional, cell-based; conditions: HL-60, 72 h
K562 = assay: Antiproliferative activity against human K562 cells incubated for 72 hrs by CCK8 assay; assay type: functional, cell-based; conditions: K562, 72 h
OCI-Ly3 = assay: Antiproliferative activity against human OCILY3 cells incubated for 72 hrs by CCK8 assay; assay type: functional, cell-based; conditions: OCI-Ly3, 72 h
ASPC1 = assay: Antiproliferative activity against human ASPC1 cells incubated for 72 hrs by CCK8 assay; assay type: functional, cell-based; conditions: ASPC1, 72 h
HeLa = assay: Antiproliferative activity against human HeLa cells incubated for 72 hrs by CCK8 assay; assay type: functional, cell-based
[17] = Antiproliferative activity against HEK293 cells incubated for 72 hrs by CCK8 assay; assay type: toxicity, cell-based; conditions: human
[18] = Antiproliferative activity against mouse NIH3T3 cells incubated for 72 hrs by CCK8 assay; assay type: toxicity, cell-based
[19] = biological target: Serine/threonine-protein kinase RIO2 (Homo sapiens, UniProt Q9BVS4); assay: Inhibition of RIOK2 (unknown origin) ATPase activity incubated for 2 hrs in presence of ATP by ADP-Glo assay
[20] = biological target: T1, E3 ubiquitin-protein ligase RNF126/Serine/threonine-protein kinase RIO2; assay: Molecular glue degradation activity at RNF126/RIOK2 in human MOLT-4 cells assessed as decrease in mTOR level at 500 nM incubated for 12 hrs by immunoblot analysis; assay type: cell-based
MOLT-4 [21] = assay: Induction of cell cycle arrest in human MOLT-4 cells assessed as accumulation at G2/M phase at 900 nM incubated for 24 hrs by PI staining based flow cytometry relative to control; assay type: functional
MOLT-4 [22] = assay: Induction of apoptosis in human MOLT-4 cells at 900 nM incubated for 48 hrs by Annexin V-FITC/PI staining based flow cytometry relative to control; assay type: functional
MOLT-4 [23] = assay: Induction of cell cycle arrest in human MOLT-4 cells assessed as accumulation at G2/M phase incubated for 24 hrs by PI staining based flow cytometry; assay type: functional; conditions: dose <= 900.0 nM
MOLT-4 [24] = assay: Induction of apoptosis in human MOLT-4 cells incubated for 48 hrs by Annexin V-FITC/PI staining based flow cytometry; assay type: functional, cell-based; conditions: dose <= 900.0 nM
MOLT-4 [25] = assay: Induction of cell cycle arrest in human MOLT-4 cells assessed as decrease in CDK2 level by Western blot analysis; assay type: functional, cell-based; conditions: dose <= 900.0 nM
MOLT-4 [26] = assay: Induction of apoptosis in human MOLT-4 cells assessed as decrease in PARP level by Western blot analysis; assay type: functional, cell-based; conditions: dose <= 900.0 nM
[27] = Half life in Sprague-Dawley rat at 5 mg/kg, iv measured for 24 hrs; assay type: ADME, organism-based; conditions: in vivo
[28] = Cmax in Sprague-Dawley rat at 5 mg/kg, iv measured for 24 hrs; assay type: ADME, organism-based; conditions: in vivo
[29] = Clearance in Sprague-Dawley rat at 5 mg/kg, iv measured for 24 hrs; assay type: ADME, organism-based; conditions: in vivo
[30] = AUClast in Sprague-Dawley rat at 10 mg/kg, ip measured for 24 hrs; assay type: ADME, organism-based; conditions: in vivo
[31] = Half life in Sprague-Dawley rat at 10 mg/kg, ip measured for 24 hrs; assay type: ADME, organism-based; conditions: in vivo
[32] = Cmax in Sprague-Dawley rat at 10 mg/kg, ip measured for 24 hrs; assay type: ADME, organism-based; conditions: in vivo
[33] = Oral bioavailability in Sprague-Dawley rat at 10 mg/kg measured for 24 hrs; assay type: ADME, organism-based; conditions: in vivo
MOLT-4 [34] = assay: Antitumor activity against human MOLT-4 cells xenografted in SCID-CB17 mouse at 10 mg/kg, ip for 18 days relative to control; assay type: functional; conditions: MOLT-4, 432 h, time 18 day, read-out: TGI
[35] = Toxicity in SCID-CB17 mouse xenografted with human MOLT-4 cells assessed as body weight loss at 10 mg/kg, ip for 18 days; assay type: organism-based; conditions: in vivo, 432 h, time 18 day
Mus musculus = assay: In vivo molecular glue degradation activity at RNF126/RIOK2 in SCID-CB17 mouse xenografted with human MOLT-4 cells assessed as induction of RIOK2 degradation in tumor at 10 mg/kg, ip for 18 days measured after 4 hrs post-last dose; assay type: functional, organism-based; conditions: time 436.0 hrs

Serine/threonine-protein kinase RIO2, sequence (Q9BVS4 whole entry): as above

DC50 [1]: 410 nM
Activity ([1]; dose <= 10.0 µM): Dose-dependent-effect
Emax [2]: 94.8%
T1/2 [3]: 9.6 h
Activity [4]: inactive
Activity [5]: inactive
Activity [6]: Active
DC50 [7]: 1300 nM
DC50 [8]: 450 nM
DC50 [9]: > 10000 nM
DC50 [10]: > 10000 nM
DC50 [11]: > 10000 nM
Emax [12]: 60.4%
Emax [13]: 74.6%
Emax [14]: 66.9%
Emax [15]: 50.3%
IC50 (U-937): 410 nM
IC50 (MOLT-4 [16]): 130 nM
IC50 (HL-60): 340 nM
IC50 (K562): 1140 nM
IC50 (OCI-Ly3): 120 nM
IC50 (ASPC1): 1130 nM
IC50 (HeLa): 580 nM
IC50 [19]: 98 nM
Activity [20]: Active
half-life [27]: 0.6 h
Cmax [28]: 1440 ng/mL
clearance [29]: 69.2 mL/min/kg
AUClast [30]: 1200 ng·h/mL
half-life [31]: 8.1 h
Cmax [32]: 90.6 ng/mL
bioavailability [33]: 49.7%
SMILES: COc1ccc(-c2ccc3[nH]c(=O)c4nnn(-c5ccc(N6CCN(C(=O)/C=C/C(=O)c7ccc(F)cc7)CC6)c(C(F)(F)F)c5)c4c3c2)cn1
IC50 at 72 h [17]: 1050 nM
IC50 at 72 h [18]: 1060 nM
Activity (MOLT-4 [21]): 39.6%
Activity (MOLT-4 [22]): 57.11%
Activity (MOLT-4 [23]): Dose-dependent-effect
Activity (MOLT-4 [24]): Dose-dependent-effect
Activity (MOLT-4 [25]): Dose-dependent-effect
Activity (MOLT-4 [26]): Dose-dependent-effect
inhibition in vivo at 10 mg/kg (MOLT-4 [34]): 18.6%
Activity [35]: Non-toxic
Activity (Mus musculus): Active
